The results in this text go back to patent US11401264B2, “Heterocyclic compound” (Orizuru Therapeutics, Inc., priority 2018, dated 2022).

This assay concerns cardiomyocytes from double knock-in human iPS cell lines (mCherry at TNNI3 locus). In words: Experimental Example 1: mCherry (TNNI3 reporter) immunostaining measured by high contents screening. It counts as cell-based. Set-up: key to average fluorescent intensity (at 30 μM): —: The symbol in Table 2 means that the average fluorescent intensity cannot be evaluated due to cell decrease. To be noted: read on 8th day, Alexa 647 anti-mCherry, control well 797. The essentials:
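Double knock-in iPS lines (EmGFP at TNNI1, mCherry at TNNI3) differentiated as embryoid bodies in stirred bioreactor at 37 °C, 5% O2: BMP4/activin A/bFGF, then VEGF, IWP-3, dorsomorphin, SB431542, then VEGF alone. On day 14, dissociated cells seeded at 1.0×10^4 cells/well on iMatrix-511 in AK02-based cardiomyocyte medium.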

For the compound `O=C1c2ccc(N3CCOCC3)cc2CN1c1ccc2[nH]c(-c3ccc(Br)cc3)nc2c1` [Example 8, 2-(2-(4-bromophenyl)-1H-benzimidazol-5-yl)-5-(morpholin-4-yl)isoindolin-1-one], the “average fluorescent intensity (at 1 μM)” value (test compound 1 μM added on 3rd and 6th culture days) was 985. The “average fluorescent intensity (at 30 μM)” value (test compound 30 μM added on 3rd and 6th culture days) was “—”.
